Literature values as cited in patent publication US20240300988A1, “CRYSTALLINE FORMS OF PENTAAZA MACROCYCLIC RING COMPLEX” (Galera Labs, LLC, priority 2023, published 2024).

Test system: VEGFr inhibitor-induced pulmonary disease
Settings: rat model; Tuder et al., Am. J. Respir. Cell Mol. Biol., 29, 88-97 (2003)

Structure (SMILES): [Cl][Mn][Cl].c1cc2nc(c1)CN[C@H]1CCCC[C@@H]1NCCN[C@H]1CCCC[C@@H]1NC2 [GC4419]
- effect on VEGFr inhibitor-induced pulmonary disease: attenuate VEGFr inhibitor-induced pulmonary disease
